Experimental data reported in the METLIN SMRT retention time set (Domingo-Almenara et al. 2019).

Experiment: gradient 5% acetonitrile 3 min, to 50% in 2 min, to 85% in 15 min, held 3 min, 100 µL/min
Settings: column: Zorbax Extend-C18 2.1 x 50 mm; eluents: water / acetonitrile, 0.1% formic acid
Outline: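 Retention times come from adduct peaks that were picked computationally and then checked by hand. The standards, pure and pooled in mixtures of ~100 molecules, were run on a Zorbax Extend-C18 column (2.1 × 50 mm, 1.8 μm) at 100 μL/min with water and acetonitrile, each with 0.1% formic acid. Detection was by quadrupole time-of-flight mass spectrometry in positive and negative ionization mode, with a dead volume of 40 μL and a dwell volume of 900 μL.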

| SMILES | RP-LC retention time [s] |
| --- | --- |
| Cc1ccc(CNC(=O)c2ccc3c(c2)nc2n3CCN(C(C)C)C2=O)cc1C | 767 |
| O=C(NCc1[nH]nc2ccccc12)c1ccc(Br)o1 | 725 |
| Cc1ccccc1Nc1c(-c2cccc(N(C)C)c2)nc2ccc(Br)cn12 | 847 |
| Cc1ccc(C)c(NC(=O)NC2CCN(c3ccc(F)c(C)c3)C2=O)c1 (stereo not given) | 891 |
| O=C(Cc1nc(-c2ccccc2)n[nH]1)Nc1ccc(Cl)cc1 | 789 |
| COc1cc(OC)cc(C(=O)N2C[C@@H]3C[C@H](NC(=O)c4ccccc4)[C@H]2C3)c1 | 684 |
| CCS(=O)(=O)Nc1ccc(S(=O)(=O)Nc2nc(C)cc(C)n2)cc1 | 598 |
| CNC(=O)c1cnn(-c2ccc(-c3nc(C(C)C)no3)cn2)c1C | 780 |
| COc1ccc(-c2nnc(COc3ccc(NC(=O)c4ccnn4C)cc3)o2)cc1 | 790 |
| O=C(NCc1cccs1)c1ccc2c(c1)OCCCO2 | 791 |
| CC(=O)OCc1cc(=O)n(C)c2c3c4c(cc12)c(C)cc(=O)n4CO3 | 669 |
| CS(=O)(=O)Nc1ccc(-c2noc(-c3cnccn3)n2)cc1 | 686 |
| COCC(=O)N1CCCc2ccc(NC(=O)C3CC(=O)N(c4ccc(F)cc4)C3)cc21 (stereo not given) | 681 |
| COc1ccc(-c2nc(-c3cccc(-c4ccnn4C)c3)no2)cc1 | 1120 |
| O=C(Cc1nnc(-c2ccc3ncccc3c2)o1)Nc1cccc(Cl)c1 | 768 |
| COc1ccc(-c2noc(Cn3ccn(-c4cc(C)cc(C)c4)c(=O)c3=O)n2)cc1 | 870 |
| CCCN1C(=O)COc2ccc(-c3csc(NC(=O)C(C)(C)C)n3)cc21 | 1010 |
| CCN(CC)S(=O)(=O)c1ccc2c(c1)N(CC(=O)NCCCOC(C)C)C(=O)C1CCCCN21 (stereo not given) | 907 |
| Cc1cc(Cl)ccc1NC(=O)Cc1nnc(-c2ccc3ncccc3c2)o1 | 766 |
| O=C1CCC(c2nc(-c3ccc4c(c3)OCO4)no2)=NN1Cc1ccccc1 | 1050 |
| CN(C)c1ccc(C(=O)NCc2nn(C)c3ccccc23)cc1 | 778 |
| CCNC(=O)c1cnn(-c2cc(-c3nc(CC)no3)ccn2)c1C | 806 |
| O=C(NC(c1ccccc1)c1nnc(N2CCOCC2)o1)c1cccc(Cl)c1 (stereo not given) | 796 |
| CC(C)N1C(=O)C(CC(=O)Nc2cccc(OC(F)(F)F)c2)=C2CCCCC21 (stereo not given) | 1080 |
| Cc1[nH]c2ccccc2c1C(=O)C(=O)Nc1ccccc1F | 846 |

| SMILES | RP-LC retention time [s] |
| --- | --- |
| Cc1ccc(Nc2cc(C)n3c(=O)n(Cc4cc(=O)n5ccccc5n4)nc3n2)cc1F | 942 |
| CCOc1ccccc1-c1noc(Cn2cnc3c(cnn3-c3ccc(CC)cc3)c2=O)n1 | 1170 |
| Cc1ccc(-c2noc(-c3cccn(CC(=O)NC(C)C)c3=O)n2)cc1 | 764 |
| COc1cc(/C=C(\C)c2ccc3c(c2)OCO3)cc(OC)c1OC | 1030 |
| CCC1CN2C=Nc3oc(C)c(C(=O)Nc4ccc(C(F)(F)F)cc4)c3C2=N1 (stereo not given) | 753 |
| Clc1ccc(-c2nc(NCc3cccnc3)c3ccccc3n2)cc1 | 601 |
| COC(=O)c1cc(OC)c(OC)cc1NC(=O)C1=Cc2cc(OC)ccc2OC=C1 | 829 |
| O=C(Cn1cccc1-c1nnc(-c2ccccc2)o1)N1CCc2ccccc2C1 | 986 |
| NC(=O)Cn1cnc2c(-c3ccc(F)cc3)nsc2c1=O | 713 |
| O=C(CNC(=O)Cc1ccccc1)NCc1[nH]nc2ccccc12 | 648 |
| Cc1noc([C@@H]2CC(F)(F)CN2C(=O)c2ccoc2)n1 | 703 |
| Cc1ccccc1S(=O)(=O)N1[C@H]2CC[C@@H]1c1cnc(-c3ccc(F)cc3)nc1C2 | 1210 |
| Nc1nc(-c2ccc(S(=O)(=O)N3CCOCC3)cc2)cs1 | 620 |
| O=S(=O)(Nc1cccc(-c2cn3ccccc3n2)c1)c1ccccc1 | 626 |
| O=C(CSc1nc2ccccc2[nH]1)Nc1nc2ccccc2s1 | 577 |
| CC(C)CCN(CC(=O)N1CCNCC1)C(=O)c1ccc(Br)cc1 | 657 |
| CCc1cc(=O)n(CC(=O)N2CCCc3ccccc32)c(-n2nc(C)cc2C)n1 | 993 |
| COc1ccccc1C(=O)Nc1cccc(Cl)c1 | 964 |
| COCCn1cc(CCNC(=O)Nc2ccc(Br)cc2F)c2cccnc21 | 834 |
| COc1cccc2c1[C@@H]1CN(CCCCN3C(=O)NC4C(SC5NCC(c6ccccc6)NC54)C3=O)C[C@@H]1CO2 (stereo not given in full) | 902 |
| CCC(C)NC(=O)N1CC(Oc2ccc(-c3nc(-c4ccccc4)no3)cc2)C1 (stereo not given) | 712 |
| COC[C@@H]1CN(S(=O)(=O)c2ccc(F)cc2)C[C@H]1c1ccncc1 | 639 |
| CN(C)CCNC(=O)Cn1cnc2onc(-c3ccc(F)cc3)c2c1=O | 620 |
| CCCN1CCN(C(=O)c2cnn(-c3cc(-c4nc(C(C)(C)C)no4)ccn3)c2C)CC1 | 715 |
| O=C(Nc1ccccc1C(F)(F)F)NC1CCN(c2ccccc2)C1=O (stereo not given) | 841 |

Now from value to compound:

| RP-LC retention time [s] | SMILES |
| --- | --- |
| 765 | O=C(NC1CCCCC1)C1CCN(S(=O)(=O)c2ccc3[nH]c(=O)sc3c2)CC1 |
| 872 | CN1C(=O)C2(CCN(C(=O)Cc3ccc(Cl)cc3)C2)c2ccccc21 (stereo not given) |
| 1040 | CCc1ccc(-c2csc(Nc3ccccn3)n2)cc1 |
| 888 | CC(C)c1ccc(NC(=O)C2CCc3nc(N4CCOCC4)ncc3C2)cc1 (stereo not given) |
| 995 | Cc1nc(-c2cn(C)c3ncccc23)sc1C(=O)NC1CCCCCC1 |
| 860 | COc1ccc(C2Cn3nnc(C(=O)N4CCC(C(=O)NC5CCCCC5)CC4)c3CO2)cc1 (stereo not given) |
| 832 | Clc1ccc(OCc2nn3c(-c4ccccn4)nnc3s2)cc1 |
| 631 | O=S(=O)(Cc1ccccc1)N1CCCC(Cc2nncn2CC2CC2)C1 (stereo not given) |
| 571 | COC1CCC12CCN(Cc1ccccn1)CC2 (stereo not given) |
| 574 | CCN(CCCNC(=O)C1CCN(c2nccc3c(C)nn(C)c23)CC1)c1ccccc1 |
| 732 | CCNC(=O)C1(C)CC(c2ccccc2)=NO1 (stereo not given) |
| 547 | COC(=O)CC1=CC(SCC(=O)NC2CCc3ccccc32)=Nc2ccccc2N1 (stereo not given) |
| 728 | CCNC(=O)NCCC1CCN(S(=O)(=O)c2ccc(F)cc2)CC1 |
| 1240 | O=C(NCCC1=CCCCC1)C(=O)NCC1(c2cccs2)CCCC1 |
| 841 | CCNC(=O)c1cc(N2CCCC2)nc2ccccc12 |
| 1120 | Cc1ccc(N2CCN(S(=O)(=O)c3ccc(-c4nnc(C5CCC5)o4)o3)CC2)cc1 |
| 694 | O=C(NCCc1ccccc1)Nc1cccc(-c2nnc3n2CCCC3)c1 |
| 737 | Cc1ccc2c(Nc3ccc(C(C)C)cc3)c(C(=O)N3CCCCC3C)cnc2n1 (stereo not given) |
| 575 | O=C(NCCCn1cccn1)C1CCc2nc(N3CCCC3)ncc2C1 (stereo not given) |
| 737 | O=C(COc1ccccc1)N1CCC(c2noc(-c3ccncc3)n2)C1 (stereo not given) |

| RP-LC retention time [s] | SMILES |
| --- | --- |
| 834 | COc1ccc(CNC2=NCCNC23CCN(S(=O)(=O)c2c(C)cc(C)cc2C)CC3)cc1 |
| 1130 | COc1ccccc1NC(=O)C(=O)c1cn(CC(=O)N2CCCC2)c2ccccc12 |
| 691 | CCN1C(=O)c2cc(C(=O)N3CCN(c4ncccn4)CC3)nn2CC1(C)C(=O)NC1CCCC1 (stereo not given) |
| 818 | O=C(NCc1ccc(F)c(Cl)c1)C1CCCN(c2ncnc3c2oc2ccccc23)C1 (stereo not given) |
| 586 | CC(NC(=O)c1ccco1)c1nc2ccccc2n1CC(=O)N1CCOCC1 (stereo not given) |
| 624 | O=C(Nc1ccccc1F)N1CCN(CCn2c(C(F)(F)F)nc3cccnc32)CC1 |
| 560 | O=C(CC1CCCC1)N1CCN(CCn2cccn2)CC1 |
| 622 | CC(=O)N1CCN(C(=O)C2CCCN(c3ccc(-c4ccc(C)c(C)c4)nn3)C2)CC1 (stereo not given) |
| 1070 | CS(=O)(=O)N1CCC(C(=O)NC2CCCCCCC2)Oc2ccc(Cl)cc21 (stereo not given) |
| 684 | Cc1nn(C(C)C(=O)N2CCOCC2)c(=O)c2nn(-c3ccccc3)c(C)c12 (stereo not given) |
| 944 | O=c1ccc(S(=O)(=O)N2CCCCCC2)cn1Cc1cccc(F)c1 |
| 910 | CCc1cc(C2CCCN2C(=O)Nc2ccccc2Cl)on1 (stereo not given) |
| 942 | CCCN1C(=O)C(C)(C(=O)NCc2ccccc2Cl)Oc2cccnc21 (stereo not given) |
| 809 | COc1ccc(C)cc1NC(=O)C1CCN(S(=O)(=O)c2cc(C(=O)N3CCCC3)n(C)c2)CC1 |
| 1290 | COc1cc(NC(=O)C2CCCN(c3nc4ccccc4nc3OC)C2)c(OC)cc1Cl (stereo not given) |
| 655 | O=C(c1ccc(Br)cc1)N1CCN(c2nc(CN3CCCCC3)cs2)CC1 |
| 1170 | COc1ccc(NC(=O)c2cn(-c3cc(N4CCCC(C)C4)ncn3)cn2)c(OC)c1 (stereo not given) |
| 786 | COc1ccc(C2CCCN2C(=O)c2cc(C)on2)cc1 (stereo not given) |
| 1300 | CCOc1nc2ccccc2nc1N1CCCC(C(=O)N2CCN(c3ccc(F)cc3)CC2)C1 (stereo not given) |
| 1060 | O=C(Cn1ccc2ccc(N3CCOCC3)nc21)N1CCN(c2ccccc2Cl)CC1 |
